According to patent US4015974A, “Amido phosphorothiolates” (priority 1972, dated 1977):

How the values were obtained:
Assay type in all cases: in vivo
rice = assay: Water application, phytotoxicity on rice (Table 2); design: key: 0: no effect; 1: very slightly affected; 2: slightly affected; 3: moderately affected; 4: considerably affected; 5: completely killed; conditions: 25 days, score 0-5
Outline: (§1)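 Ratings on a 0–5 scale taken 25 days post-treatment for rice injury, barnyard grass, and naturally emerging monochoria, false pimpernel and toothcup. Compounds as wettable powder went onto waterlogged paddy soil holding rice seedlings transplanted at 3 leaves and barnyard grass seed.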

[1] = test system: large crabgrass (Digitaria sanguinalis); assay: Pre-emergence application, herbicidal effect on large crabgrass (Table 1); design: key: 0: not damaged; 5: completely killed; conditions: 20 days after application, score 0-5
Outline: (§2)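 Compounds, formulated as water-diluted wettable powder, were applied to the soil surface after sowing and covering the seeds in pots of about 10 cm. Effects were rated on a 0 (no damage) to 5 (complete kill) scale after 20 days of greenhouse growth.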

[2] = test system: barnyard grass (Echinochloa crus-galli); assay: Pre-emergence application, herbicidal effect on barnyard grass (Table 1); design: key: 0: not damaged; 5: completely killed; conditions: 20 days after application, score 0-5
Outline: as §2

radish = assay: Pre-emergence application, herbicidal effect on radish (Table 1); design: key: 0: not damaged; 5: completely killed; conditions: 20 days after application, score 0-5
Outline: as §2

[3] = test system: redroot pigweed (Amaranthus retroflexus); assay: Pre-emergence application, herbicidal effect on redroot pigweed (Table 1); design: key: 0: not damaged; 5: completely killed; conditions: 20 days after application, score 0-5
Outline: as §2

[4] = test system: common lambsquarter (Chenopodium album); assay: Pre-emergence application, herbicidal effect on common lambsquarter (Table 1); design: key: 0: not damaged; 5: completely killed; conditions: 20 days after application, score 0-5
Outline: as §2

[5] = test system: barnyard grass (Echinochloa crus-galli); assay: Water application, herbicidal effect on barnyard grass (Table 2); design: key: 0: not damaged; 5: completely killed; conditions: 25 days, score 0-5
Outline: as §1

[6] = test system: broad-leaved weeds, e.g., monochoria, false pimpernel and toothcup; assay: Water application, herbicidal effect on broad-leaved weeds (Table 2); design: key: 0: not damaged; 5: completely killed; conditions: 25 days, score 0-5
Outline: as §1

[7] = test system: common purslane (Portulaca oleracea); assay: Pre-emergence application, herbicidal effect on common purslane (Table 1); design: key: 0: not damaged; 5: completely killed; conditions: 20 days after application, score 0-5
Outline: as §2

| SMILES | Phytotoxicity on rice (rice; 10 g/a) | Phytotoxicity on rice (rice; 20 g/a) | Phytotoxicity on rice (rice; 40 g/a) | Herbicidal effect, large crabgrass ([1]; 10 g./a.) | Herbicidal effect, large crabgrass ([1]; 20 g./a.) | Herbicidal effect, large crabgrass ([1]; 40 g./a.) | Herbicidal effect, barnyard grass ([2]; 10 g./a.) | Herbicidal effect, barnyard grass ([2]; 20 g./a.) | Herbicidal effect, barnyard grass ([2]; 40 g./a.) | Herbicidal effect, radish (radish; 10 g./a.) | Herbicidal effect, radish (radish; 20 g./a.) | Herbicidal effect, radish (radish; 40 g./a.) | Herbicidal effect, redroot pigweed ([3]; 10 g./a.) | Herbicidal effect, redroot pigweed ([3]; 20 g./a.) | Herbicidal effect, redroot pigweed ([3]; 40 g./a.) | Herbicidal effect, common lambsquarter ([4]; 10 g./a.) | Herbicidal effect, common lambsquarter ([4]; 20 g./a.) | Herbicidal effect, common lambsquarter ([4]; 40 g./a.) | Herbicidal effects, barnyard grass ([5]; 10 g/a) | Herbicidal effects, barnyard grass ([5]; 20 g/a) | further results |
| --- | --- | --- | --- | --- | --- | --- | --- | --- | --- | --- | --- | --- | --- | --- | --- | --- | --- | --- | --- | --- | --- |
| CCCCOP(=O)(SCC)SCC(=O)N1CCCCC1CC (stereo not drawn) [Compound 92] | 0 | 0 | 2 | 5 | 5 | 5 | 5 | 5 | 5 | 0 | 0 | 0 | 5 | 5 | 5 | 5 | 5 | 5 | 5 | 5 | Herbicidal effects, barnyard grass ([5]; 40 g/a): 5; Herbicidal effects, broad-leaved weeds ([6]; 10 g/a): 5; Herbicidal effects, broad-leaved weeds ([6]; 20 g/a): 5; Herbicidal effects, broad-leaved weeds ([6]; 40 g/a): 5; Herbicidal effect, common purslane ([7]; 10 g./a.): 5; Herbicidal effect, common purslane ([7]; 20 g./a.): 5; Herbicidal effect, common purslane ([7]; 40 g./a.): 5 |
| CCCCCSP(=O)(OCCCC)SCC(=O)N1CCCCC1CC (stereo not drawn) [Compound 98] | 0 | 0 | 0 | 5 | 5 | 5 | 5 | 5 | 5 | 0 | 0 | 0 | 4 | 5 | 5 | 5 | 5 | 5 | 5 | 5 | Herbicidal effects, barnyard grass ([5]; 40 g/a): 5; Herbicidal effects, broad-leaved weeds ([6]; 10 g/a): 5; Herbicidal effects, broad-leaved weeds ([6]; 20 g/a): 5; Herbicidal effects, broad-leaved weeds ([6]; 40 g/a): 5; Herbicidal effect, common purslane ([7]; 10 g./a.): 4; Herbicidal effect, common purslane ([7]; 20 g./a.): 5; Herbicidal effect, common purslane ([7]; 40 g./a.): 5 |
| CCOP(=O)(SCCC(C)C)SCC(=O)N1CCCCC1CC (stereo not drawn) [Compound 79] | 0 | 0 | 1 | 5 | 5 | 5 | 5 | 5 | 5 | 0 | 0 | 1 | 4 | 5 | 5 | 5 | 5 | 5 | 5 | 5 | Herbicidal effects, barnyard grass ([5]; 40 g/a): 5; Herbicidal effects, broad-leaved weeds ([6]; 10 g/a): 5; Herbicidal effects, broad-leaved weeds ([6]; 20 g/a): 5; Herbicidal effects, broad-leaved weeds ([6]; 40 g/a): 5; Herbicidal effect, common purslane ([7]; 10 g./a.): 5; Herbicidal effect, common purslane ([7]; 20 g./a.): 5; Herbicidal effect, common purslane ([7]; 40 g./a.): 5 |
| CCOP(=O)(SCC(=O)N1CCCCC1CC)SC(C)C (stereo not drawn) [Compound 76] | 0 | 0 | 0 | 5 | 5 | 5 | 5 | 5 | 5 | 0 | 1 | 2 | 5 | 5 | 5 | 5 | 5 | 5 | 5 | 5 | Herbicidal effects, barnyard grass ([5]; 40 g/a): 5; Herbicidal effects, broad-leaved weeds ([6]; 10 g/a): 5; Herbicidal effects, broad-leaved weeds ([6]; 20 g/a): 5; Herbicidal effects, broad-leaved weeds ([6]; 40 g/a): 5; Herbicidal effect, common purslane ([7]; 10 g./a.): 5; Herbicidal effect, common purslane ([7]; 20 g./a.): 5; Herbicidal effect, common purslane ([7]; 40 g./a.): 5 |
| C=C(Cl)CSP(=O)(OCC)SCC(=O)N1CCCCC1CC (stereo not drawn) [Compound 82] | 0 | 0 | 2 | 5 | 5 | 5 | 5 | 5 | 5 | 0 | 0 | 1 | 4 | 4 | 5 | 4 | 4 | 5 | 5 | 5 | Herbicidal effects, barnyard grass ([5]; 40 g/a): 5; Herbicidal effects, broad-leaved weeds ([6]; 10 g/a): 5; Herbicidal effects, broad-leaved weeds ([6]; 20 g/a): 5; Herbicidal effects, broad-leaved weeds ([6]; 40 g/a): 5; Herbicidal effect, common purslane ([7]; 10 g./a.): 3; Herbicidal effect, common purslane ([7]; 20 g./a.): 4; Herbicidal effect, common purslane ([7]; 40 g./a.): 5 |
| CCCCOP(=O)(SCC(=O)N1CCCCC1CC)SC(C)C (stereo not drawn) [Compound 94] | 0 | 0 | 0 | 5 | 5 | 5 | 5 | 5 | 5 | 0 | 0 | 0 | 3 | 4 | 5 | 4 | 4 | 5 | 5 | 5 | Herbicidal effects, barnyard grass ([5]; 40 g/a): 5; Herbicidal effects, broad-leaved weeds ([6]; 10 g/a): 5; Herbicidal effects, broad-leaved weeds ([6]; 20 g/a): 5; Herbicidal effects, broad-leaved weeds ([6]; 40 g/a): 5; Herbicidal effect, common purslane ([7]; 10 g./a.): 3; Herbicidal effect, common purslane ([7]; 20 g./a.): 4; Herbicidal effect, common purslane ([7]; 40 g./a.): 5 |
| CCCOP(=O)(SCCC)SCC(=O)N1CCCCC1C (stereo not drawn) [Compound 16, O,S-di-n-propyl-S-(2-methylpiperidinocarbamoylmethyl)phosphorodithiolate] | 0 | 0 | 0 | 5 | 5 | 5 | 4 | 4 | 5 | 0 | 0 | 0 | 4 | 4 | 4 | 4 | 4 | 5 | 5 | 5 | Herbicidal effects, barnyard grass ([5]; 40 g/a): 5; Herbicidal effects, broad-leaved weeds ([6]; 10 g/a): 5; Herbicidal effects, broad-leaved weeds ([6]; 20 g/a): 5; Herbicidal effects, broad-leaved weeds ([6]; 40 g/a): 5; Herbicidal effect, common purslane ([7]; 10 g./a.): 4; Herbicidal effect, common purslane ([7]; 20 g./a.): 4; Herbicidal effect, common purslane ([7]; 40 g./a.): 4 |
| CCOP(=O)(SCC(=O)N1CCCCC1C)SC(C)c1ccccc1 (stereo not drawn) [Compound 64] | 0 | 0 | 0 | 4 | 5 | 5 | 4 | 5 | 5 | 0 | 0 | 0 | 3 | 3 | 4 | 3 | 4 | 4 | 5 | 5 | Herbicidal effects, barnyard grass ([5]; 40 g/a): 5; Herbicidal effects, broad-leaved weeds ([6]; 10 g/a): 5; Herbicidal effects, broad-leaved weeds ([6]; 20 g/a): 5; Herbicidal effects, broad-leaved weeds ([6]; 40 g/a): 5; Herbicidal effect, common purslane ([7]; 10 g./a.): 3; Herbicidal effect, common purslane ([7]; 20 g./a.): 3; Herbicidal effect, common purslane ([7]; 40 g./a.): 4 |
